Results as given in patent US5382579A, “Triazolo-1,4-diazepine derivatives and their use in pharmaceuticals” (Eisai Co., Ltd., priority 1988, dated 1995).

Biological target: T1, PAF receptor (Homo sapiens, UniProt P25105)
T1 construct: Platelets are obtained from healthy men according to the usual method; endogenous in cells; host or cells: platelets from healthy men
Assay: PAF Receptor Binding Assay to the Human Platelet (3H-PAF)
Details: PAF receptor binding assay IC50, human platelets, 3H-PAF 0.6-1 nM, 37° C., pH 7.0
Procedure: Platelets are obtained from healthy men according to the usual method and suspended at a concentration of 10^8 platelets/460 μl in a binding buffer (10 mM phosphate-buffers saline (pH 7.0), with 0.1% (w/V) BSA and 0.9 mM CaCl2). Platelets (10^8) in 460 μl of the buffer were added to polypropylene tubes and preincubated with test compounds (20 μl), after vortexing, for 6 min at 37° C. Subsequently, 20 μl of a binding buffer solution of ^3 H-PAF (final ^3 H-PAF concentration 0.6-1 nM) was added to the tubes, which were incubated for 6 minutes. The binding reaction was stopped by adding of 3 ml of an ice-cold washing solution (saline containing 0.1% (w/v) BSA). Platelets were isolated by vacuum filtration on glass filters (Whatman GF/C). After drying the glass filter, radioactivity on the glass filter was measured in scintilator with a liquid scintillation counter.
The inhibition percent is calculated according to the following equation and the value of IC is determined by interpolation from the figure. [formula] binding: radioactivity of binding in the absence of cold PAF or test compounds
non-specific binding: radioactivity of binding in the presence of 10^-5 M PAF
non-specific binding: radioactivity (dpm) after the incubation with 10^-5 M of cold PAF.

T1 sequence (P25105 whole entry): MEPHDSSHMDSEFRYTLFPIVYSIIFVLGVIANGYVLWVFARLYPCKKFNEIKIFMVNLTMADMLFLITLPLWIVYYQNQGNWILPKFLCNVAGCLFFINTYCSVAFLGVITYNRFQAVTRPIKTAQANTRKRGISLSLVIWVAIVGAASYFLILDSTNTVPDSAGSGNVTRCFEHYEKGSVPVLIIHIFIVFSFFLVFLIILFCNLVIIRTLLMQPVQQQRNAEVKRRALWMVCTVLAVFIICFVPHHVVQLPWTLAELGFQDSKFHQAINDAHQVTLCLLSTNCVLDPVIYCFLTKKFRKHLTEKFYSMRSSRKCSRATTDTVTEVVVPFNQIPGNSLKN

Compound | IC50 [nM]
Cc1nnc2n1-c1sc3c(c1C(c1ccccc1Cl)=NC2C)CCN(C(=O)C1CC1)C3 (single isomer, unassigned) [drawing 94] | 420
C#CCCOC(=O)N1CCc2c(sc3c2C(c2ccccc2Cl)=NCc2nnc(C)n2-3)C1 [drawing 83] | 3.5
Cc1nnc2n1-c1sc3c(c1C(c1ccccc1Cl)=NC2)CCN(C(=O)C#Cc1ccccc1)C3 | 0.56
Cc1nnc2n1-c1sc3c(c1C(c1ccccc1Cl)=NC2)CCN(C(=O)OCCCC#N)C3 [drawing 89] | 4.4
C#CCCCCOC(=O)N1CCc2c(sc3c2C(c2ccccc2Cl)=NCc2nnc(C)n2-3)C1 | 0.22
Cc1nnc2n1-c1sc3c(c1C(c1ccccc1Cl)=NC2)CCN(C(=O)C1CCC1)C3 | 1.8
Cc1nnc2n1-c1sc3c(c1C(c1ccccc1Cl)=NC2)CCN(C(=O)OCCCC#N)C3 [drawing 82] | 2.7
CCC#CCOC(=O)N1CCc2c(sc3c2C(c2ccccc2Cl)=NCc2nnc(C)n2-3)C1 | 0.74
Cc1nnc2n1-c1sc3c(c1C(c1ccccc1Cl)=NC2C)CCN(C(=O)C1CC1)C3 (single isomer, unassigned) [drawing 95] | 2.8
Cc1nnc2n1-c1sc3c(c1C(c1ccccc1Cl)=NC2)CCN(C(=O)OC(C)(C)C#N)C3 | 3.3

Same assay, conditions: human platelets, 3H-PAF 0.6-1 nM, 37° C., pH 7.0; read-out: PAF receptor binding assay IC50

Compound | IC50 [nM]
C#CCCOC(=O)N1CCc2c(sc3c2C(c2ccccc2Cl)=NC(C)c2nnc(C)n2-3)C1 (single isomer, unassigned) [drawing 93] | 0.34
Cc1nnc2n1-c1sc3c(c1C(c1ccccc1Cl)=NC2C)CCN(C(=O)OC(C)(C)C#N)C3 (single isomer, unassigned) [drawing 91] | 3.1
C#CCCOC(=O)N1CCc2c(sc3c2C(c2ccccc2Cl)=NC(C)c2nnc(C)n2-3)C1 (single isomer, unassigned) [drawing 92] | 82
C#CCCOC(=O)N1CCc2c(sc3c2C(c2ccccc2Cl)=NCc2nnc(C)n2-3)C1 [drawing 88] | 1.5
Cc1nnc2n1-c1sc3c(c1C(c1ccccc1Cl)=NC2C)CCN(C(=O)OC(C)(C)C#N)C3 (single isomer, unassigned) [drawing 90] | 500
